Laboratory results from US9255107B2 (NANJING SANHOME PHARMACEUTICAL CO., LTD., priority 2012, dated 2016).
Where a name gives a salt, the structure may show the parent alone. Read-outs that look alike come from different tables or passages of the source.

Columns and labels:
[1] = system: MDA-MB-231 human breast cancer cells; assay: MTT assay, in vitro inhibitory activity on cells; format: cell-based; conditions: typically 48 hours
From the text: (§1) In this example, MTT assay was used to detect in vitro inhibitory activity of the compounds prepared according to the above examples on the cells.
(§2) Dimethyl sulfoxide (DMSO) is capable of dissolving formazan in cells, and absorbance value can be measured at a wavelength of 490 nm by an enzyme-linked immunometric meter, which reflects the number of living cells. Within a certain range of the number of cells, the amount of MTT crystals formed is proportional to the number of living cells.
(§3) 2. Culturing in a 37° C., 5% CO2 incubator and keeping the cells adhering to the walls of the wells.
(§4) 4. Carefully removing the supernatant, gently washing with PBS and discarding the supernatant again.
(§5) 6. Terminating culturing and carefully discarding the medium in each well. 7. Adding 150 μl dimethyl sulfoxide into each well, shaking for 10 minutes at low speed in a shaker, to make crystals fully dissolved.
(§6) 8. Measuring the absorbance of each well at 490 nm by an enzyme-linked immunometric meter.

K562 leukemia cells = assay: MTT assay, in vitro inhibitory activity on cells; format: cell-based; conditions: Homo sapiens, typically 48 hours, read-out: IC50 K562 Chronic myelogenous leukemia cells
From the text: as §1, §2, §3, §4, §5, §6

[2] = system: Saos-2 human osteosarcoma cells; assay: MTT assay, in vitro inhibitory activity on cells; format: cell-based; conditions: typically 48 hours
From the text: as §1, §2, §3, §4, §5, §6

[3] = system: Ovcar-3 human ovarian cancer cells; assay: MTT assay, in vitro inhibitory activity on cells; format: cell-based; conditions: typically 48 hours
From the text: as §1, §2, §3, §4, §5, §6

[4] = Pharmacokinetic studies in male SD rats; format: in vivo; conditions: rat, plasma; for MRT inf: read-out: MRT(0-∞)
Protocol: The compound prepared in Example 27 of the present invention was illustratively selected for this experiment. The pharmaceutical formulation for oral administration was made by dissolving the compound in physiological saline to prepare 3 mg/ml of suspension. The pharmaceutical formulation for caudal vein injection was made by using a mixed solution of DMSO, polyoxyethylene castor oil and physiological saline in the volume ratio of 1:30:69 to prepare 2.5 mg/ml of solution.
Male SD rats, each group of three, weighing 150 g-250 g, were provided by Shanghai SIPPR-BK Laboratory Animal Co. Ltd., China. The tested rats were acclimatized to the environment for 2-4 days prior to the experiment, and fasted for 8-12 hours before administration. The rats drank water freely 2 hours after administration, and were fed food 4 hours after administration.
1) Taking blank plasma (zero-hour sample) after the SD rats were fasted but allowed drinking water freely for 12 hours;
2) Administering to three rats in Step 1) the compound prepared in Example 27 at 15 mg/kg by gavage (Intragastric administration, IG);
administering to another three rats in Step 1) the compound prepared in Example 27 at 3 mg/kg by caudal vein (Intravenous administration, IV);
(§7) 3) Collecting sequentially blood from retinal venous plexus of the rats at 10 min, 30 min, 1 h, 2 h, 4 h, 6 h, 8 h, 10 h, 24 h after gavage administration, placing into the heparin-coated EP tubes, taking the upper plasma after centrifuging for 5 min at 8000 rpm/min, and storing at −20° C. until LC-MS/MS analysis;
4) Calculating the pharmacokinetic parameters using WinNonlin software according to the blood concentration—time data obtained from Step 3), shown in Table 4;
as §7, with “5)” for “3)”, “5 min, 15” for “10”, “h,” for “h, 6 h,”, “8” for “8 h, 10”, “caudal vein” for “gavage”
6) Calculating the pharmacokinetic parameters using WinNonlin software according to the blood concentration—time data obtained from Step 5), shown in Table 4.

Compound | IC50 [1] | IC50 (K562 leukemia cells) | IC50 [2] | IC50 [3] | further results
Cc1ccc(NC(=O)Nc2ccc(CN3CC[C@@H](N(C)C)C3)c(F)c2)cc1C#Cc1cn(C)c(-c2ncc(C(F)(F)F)[nH]2)n1 [Example 13, N-[4-methyl-3-((1-methyl-5′-trifluoromethyl-1H,1′H-[2,2′-diimidazol]-4-yl)ethynyl)phenyl]-N′—(R)-[4-((3-dimethylaminotetrahydropyrrol-1-yl)methyl)-3-fluorophenyl]urea] | 290 nM | 520 nM |  |  | 
Cc1ccc(NC(=O)c2ccc(CN3CCN(CCO)CC3)c(C(F)(F)F)c2)cc1C#Cc1cn(C)c(-c2ncc(C(F)(F)F)[nH]2)n1 [Example 15] | 560 nM | 370 nM |  |  | 
Cc1ccc(NC(=O)Nc2ccc(CN3CCN(C)CC3)c(C(F)(F)F)c2)cc1C#Cc1ccc(-c2ncc(C#N)[nH]2)nc1 [Example 23, N-[3-(2-(5-acetonitrile-1H-imidazol-2-yl)pyridin-5-yl)ethynyl-4-methylphenyl]-N′-[3-trifluoromethyl-4-(4-methylpiperazin-1-ylmethyl)phenyl]urea] |  | 3310 nM |  |  | 
Cc1ccc(C(=O)Nc2ccc(CN3CCN(C)CC3)c(C(F)(F)F)c2)cc1C#Cc1cn(C)c(-c2ncc[nH]2)n1 [Example 10, 4-methyl-3-((1-methyl-1H,1′H-[2,2′-diimidazol]-4-yl)ethynyl)-N-[4-((4-methylpiperazin-1-yl)methyl)-3-trifluoromethylphenyl]benzamide] | 1420 nM | 1920 nM | 870 nM | 3190 nM | 
CNc1nc2cc(C#Cc3cc(NC(=O)Nc4ccc(CN5CCN(C)CC5)c(C(F)(F)F)c4)ccc3C)ccn2n1 [Example 7] |  | 5070 nM |  |  | 
Cc1ccc(NC(=O)Nc2ccc(CN3CCN(C)CC3)c(C(F)(F)F)c2)cc1C#Cc1cnc2[nH]ncc2c1 [Example 1, N-[3-((1H-pyrazolo[3,4-b]pyridin-5-yl)ethynyl)-4-methylphenyl]-N′-[4-((4-methylpiperazin-1-yl)methyl)-3-trifluoromethylphenyl]urea] | 2790 nM | 4130 nM |  |  | 
Cc1cnc(-c2nc(C#Cc3cc(C(=O)Nc4ccc(CN5CCN(CCO)CC5)c(C(F)(F)F)c4)ccc3C)cn2C)[nH]1 [Example 12, 4-methyl-3-((1-methyl-5′-methyl-1H,1′H-[2,2′-diimidazol]-4-yl)ethynyl)-N-[4-((4-hydroxyethylpiperazin-1-yl)methyl)-3-trifluoromethylphenyl]benzamide] | 1270 nM | 2310 nM | 5730 nM | 4060 nM | 
Cc1ccc(NC(=O)c2ccc(CN3CCN(C)CC3)cc2)cc1C#Cc1ccc(-c2ncc(C#N)[nH]2)nc1 [Example 21] | 2060 nM | 3590 nM |  |  | 
Cc1ccc(C(=O)Nc2ccc(CN3CCN(C)CC3)c(C(F)(F)F)c2)cc1C#Cc1ccc(-c2nc[nH]n2)nc1 [Example 25, 4-methyl-3-((2-(1,2,4-triazol-3-yl)pyridin-5-yl)ethynyl)-N-[4-((4-methylpiperazin-1-yl)methyl)-3-trifluoromethylphenyl]benzamide] | 2860 nM | 3580 nM |  |  | 
Cc1ccc(NC(=O)Nc2ccc(CN3CCN(C)CC3)c(C(F)(F)F)c2)cc1C#Cc1ccn2nc(N(C)C)nc2c1 [Example 8] |  | 420 nM |  |  | 
Cc1cn(-c2cc(NC(=O)c3ccc(F)c(C#Cc4cnc(-c5nc[nH]n5)n4C)c3)cc(C(F)(F)F)c2)cn1 [Example 16, 3-[1-methyl-2-([1,2,4]-1H-triazol-3-yl)imidazol-5-yl]ethynyl-4-fluoro-N-[3-trifluoromethyl-5-(4-methylimidazol-1-yl)phenyl]benzamide] | 1270 nM |  | 1160 nM | 4720 nM | 
CNC(=O)c1cc(Oc2cc(NC(=O)c3ccc(F)c(C#Cc4cnc(-c5nc[nH]n5)n4C)c3)cc(C(F)(F)F)c2)ccn1 [Example 17, 4-fluoro-3-[1-methyl-2-([1,2,4]-1H-triazol-3-yl)imidazol-5-yl]ethynyl-N-[3-trifluoromethyl-5-(2-N-methylcarbamoylpyridin-4-yl)oxy]phenylbenzamide] | 980 nM |  | 640 nM | 3980 nM | 
Cc1ccc(C(=O)Nc2ccc(CN3CC[C@H](N(C)C)C3)c(C(F)(F)F)c2)cc1C#Cc1ccc(-c2ncc(F)[nH]2)nc1 [Example 22, 4-methyl-3-((2-(5-fluoro-1H-imidazol-2-yl)pyridin-5-yl)ethynyl)-N-[(S)-4-((3-dimethylaminotetrahydropyrrol-1-yl)methyl)-3-trifluoromethylphenyl]benzamide] | 1150 nM | 4070 nM |  |  | 
Cc1ccc(NC(=O)Nc2ccc(CN3CCN(C)CC3)c(C(F)(F)F)c2)cc1C#Cc1cn(C)c(-c2ncc(C(F)(F)F)[nH]2)n1 [Example 14, N-[4-methyl-3-((1-methyl-5′-trifluoromethyl-1H,1′H-[2,2′-diimidazol]-4-yl)ethynyl)phenyl]-N′-[4-((4-methylpiperazin-1-yl)methyl)-3-trifluoromethylphenyl]urea] | 1210 nM | 160 nM |  |  | 
Cc1ccc(C(=O)Nc2ccc(CN3CCN(C)CC3)c(C(F)(F)F)c2)cc1C#Cc1cnc2[nH]ccc2n1 [Example 27, hydrochloride] |  |  |  |  | AUC(0-inf) ([4]; iv, I.V. 3 mg/kg): 3380 ng·h/mL; AUC(0-t) ([4]; iv, I.V. 3 mg/kg): 3300 ng·h/mL; Cmax ([4]; iv, I.V. 3 mg/kg): 1270 ng/mL; half-life ([4]; iv, I.V. 3 mg/kg): 4.93 h; MRT inf ([4]; iv, I.V. 3 mg/kg): 4.92 h; bioavailability ([4]; oral, I.G. 15 mg/kg vs I.V. 3 mg/kg, read-out: F (oral bioavailability)): 32.6%; AUC(0-inf) ([4]; po, I.G. 15 mg/kg): 5220 ng·h/mL; AUC(0-t) ([4]; po, I.G. 15 mg/kg): 5370 ng·h/mL; Cmax ([4]; po, I.G. 15 mg/kg): 376 ng/mL; Tmax ([4]; po, I.G. 15 mg/kg): 7.33 h; half-life ([4]; po, I.G. 15 mg/kg): 4.1 h; MRT inf ([4]; po, I.G. 15 mg/kg): 7.71 h
Cc1ccc(C(=O)Nc2ccc(CN3CC[C@@H](N(C)C)C3)c(C(F)(F)F)c2)cc1C#Cc1ccc(-c2ncc(C(F)(F)F)[nH]2)nc1 [Example 20, 4-methyl-3-((2-(5-trifluoromethyl-1H-imidazol-2-yl)pyridin-5-yl)ethynyl)-N—[(R)-4-((3-dimethylaminotetrahydropyrrol-1-yl)methyl)-3-trifluoromethylphenyl]benzamide] | 4720 nM | 2210 nM |  |  | 
Cc1cn(-c2cc(C(=O)Nc3ccc(F)c(C#Cc4ccc(-c5ncc(C(F)(F)F)[nH]5)nc4)c3)cc(C(F)(F)F)c2)cn1 [Example 24, 3-trifluoromethyl-5-(4-methylimidazol-1-yl)-N-[3-(2-(5-trifluoromethyl-1H-imidazol-2-yl)pyridin-5-yl)ethynyl-4-fluorophenyl]-benzamide] | 1170 nM | 940 nM |  |  | 
CNC(=O)c1cc(Oc2ccc(NC(=O)c3ccc(C)c(C#Cc4ccc(-c5nc[nH]n5)nc4)c3)cc2)ccn1 [Example 26, 4-methyl-3-[2-([1,2,4]-1H-triazol-3-yl)pyridin-5-yl]ethynyl-N-[(2-N-methylcarbamoylpyridin-4-yl)oxy]phenylbenzamide] |  | 5910 nM |  |  | 
Cc1ccc(NC(=O)Nc2ccc(CN3CCN(C)CC3)c(C(F)(F)F)c2)cc1C#Cc1cnc2[nH]ccc2n1 [Example 2, N-[3-((1H-pyrrolo[2,3-b]pyrazin-5-yl)ethynyl)-4-methylphenyl]-N′-[4-((4-methylpiperazin-1-yl)methyl)-3-trifluoromethylphenyl]urea] | 110 nM | 2060 nM | 270 nM | 3090 nM | 
Cc1ccc(C(=O)Nc2ccc(CN3CCN(C)CC3)c(C(F)(F)F)c2)cc1C#Cc1cn(C)c(-c2ncc([N+](=O)[O-])[nH]2)n1 [Example 11, 4-methyl-3-((1-methyl-5′-nitro-1H,1′H-[2,2′-diimidazol]-4-yl)ethynyl)-N-[4-((4-methylpiperazin-1-yl)methyl)-3-trifluoromethylphenyl]benzamide] | 360 nM | 3140 nM | 2680 nM | 10000 nM | 
